One block for each molecule: values may come before it.
Columns and labels:
[1] = system: pCXN2-G6-transfected HCT-15 cell; assay: Sugar chain synthesis inhibitors: FACS analysis with OSK28 of poly-N-acetyllactosamine sugar chains; assay type: cell-based, human; conditions: cultured for 5 days
Protocol: The HCT-15 cells transfected with pCXN2-G6 or pCXN2 prepared in the above (2) (each 5×10^6 cells) were washed by using 3 ml of a phosphate buffer PBS (8 g/l NaCl, 0.2 g/l KCl, 1.15 g/l Na2HPO4 (anhydrous) and 0.2 g/l KH2PO4).
The cells (about 1×10^6 cells) described above were put into a microtube (1.5 ml, manufactured by Eppendorf) and the cells were collected by centrifugation (550×g, 7 minutes).
The cells were washed with 0.9 ml of 0.1% sodium azide-containing PBS (A-PBS: 8 g/l NaCl, 0.2 g/l KCl, 1.15 g/l Na2HPO4 (anhydrous), 0.2 g/l KH2PO4 and 0.1% sodium azide), and then the washed cells were suspended in 100 μl of an antibody (OSK28) capable of recognizing a poly-N-acetyllactosamine sugar chain diluted with A-PBS to give a concentration of 10 μg/ml (20 times dilution of the following purified antibody) and allowed to react at 4° C. for 30 minutes in the dark.
After the reaction, the cells are washed twice with 3 ml of A-PBS, suspended in 100 μl of an FITC-labeled anti-human IgM antibody [manufactured by Medical & Biological Laboratories (MBL)] diluted to 10 μg/ml, and then allowed to react at 4° C. for 1 hour. After the reaction, the cells were washed twice with 3 ml of A-PBS, suspended in 200 μl of PBS containing 0.5% p-formaldehyde and then immobilized. The cells were analyzed by using FACS (Epics Elite Flow Cytometer). […]

G6sec2 [2] = biological target: T1, G6sec2 (Homo sapiens, UniProt Q9BYG0); assay: β1,3-N-acetylglucosaminyltransferase activity using unlabeled oligosaccharides as substrates (HPAE/PAD); assay type: biochemical
T1 construct: made in house; host or cells: Sf21 insect cells infected with pVL1393-F2G6sec2-derived recombinant baculovirus
T1 sequence (Q9BYG0 39-378): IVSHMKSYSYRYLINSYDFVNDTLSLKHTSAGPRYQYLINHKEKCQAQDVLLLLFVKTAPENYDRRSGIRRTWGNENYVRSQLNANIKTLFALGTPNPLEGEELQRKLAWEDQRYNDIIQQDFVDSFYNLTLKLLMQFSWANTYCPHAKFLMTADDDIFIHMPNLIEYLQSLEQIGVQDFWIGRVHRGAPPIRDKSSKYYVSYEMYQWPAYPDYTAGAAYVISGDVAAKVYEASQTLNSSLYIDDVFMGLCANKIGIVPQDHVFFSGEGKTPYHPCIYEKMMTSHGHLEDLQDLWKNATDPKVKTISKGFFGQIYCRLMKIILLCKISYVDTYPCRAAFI
Protocol: The glycosyltransferase reaction was carried out as follows. The reaction was carried out at 37° C. for 16 hours in 40 μl of an assay solution [50 mmol/l MOPS (pH 7.5), 5 mmol/l UDP-GlcNAc (manufactured by SIGMA), 5 mmol/l MnCl2, 10 mmol/l sugar chain substrate, a purified enzyme solution (G6sec2)]. Next, the mixture was treated at 100° C. for 5 minutes and then centrifuged at 10,000×g for 20 minutes to obtain a supernatant, and a part thereof was analyzed using HPAE/PAD ([…]; manufactured by DIONEX). The method was specifically carried out according to a conventional method [Anal. Biochem., 189, 151-162 (1990), J. Biol. Chem., 273, 433-440 (1998)].
As a purified enzyme (G6sec2), […] of the enzyme obtained in the above (2) was used. As substrates, unlabeled oligosaccharides [lactose (Galβ1-4Glc) and LNnT] were used.
After the reaction on each substrate using an assay solution containing UDP-GlcNAc (saccharide donor) and an assay solution containing no donor, analysis was carried out using HPAE/PAD and peaks appeared only in the assay solution containing UDP-GlcNAc were defined as products. The product was identified using coincidence of its elution time with that of standard sugar chain as the index. As standard sugar chains, GlcNAcβ1-3Galβ1,4Glc and GlcNAcβ1-3Galβ1,4GlcNAcβ1-3Galβ1-4Glc were used.

G6sec1 = biological target: T2, G6sec1 (Homo sapiens, UniProt Q9BYG0); assay: GlcNAc β1,3-galactosyltransferase activity measurement; assay type: biochemical; conditions: 2-aminobenzamide-labeled substrate 88 μmol/l; UDP-Gal; 37° C., 16 hours
T2 construct: made in house; host or cells: Sf21 insect cells infected with pVL1393-F2G6sec1-derived recombinant baculovirus
T2 sequence (Q9BYG0 36-378): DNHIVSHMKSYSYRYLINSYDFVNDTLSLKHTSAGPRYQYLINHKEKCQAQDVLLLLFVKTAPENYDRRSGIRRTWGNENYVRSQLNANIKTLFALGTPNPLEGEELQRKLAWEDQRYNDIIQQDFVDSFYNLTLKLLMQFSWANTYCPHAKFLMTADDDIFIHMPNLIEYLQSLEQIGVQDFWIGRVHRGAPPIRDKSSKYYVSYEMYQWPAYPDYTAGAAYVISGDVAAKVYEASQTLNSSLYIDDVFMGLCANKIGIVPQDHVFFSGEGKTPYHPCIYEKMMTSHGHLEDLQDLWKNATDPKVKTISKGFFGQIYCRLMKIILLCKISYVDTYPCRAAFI
Protocol: (§1) The β1,3-galactosyltransferase activity measurement was carried out according to a conventional method [J. Biol. Chem., 274, 12499-12507 (1999)]. The reaction was carried out at 37° C. for 16 hours in 20 μl of an assay solution [14 mmol/l HEPES (pH 7.4), 75 μmol/l UDP-Gal (manufactured by SIGMA), 11 mmol/l MnCl2, 88 μmol/l sugar chain substrate, the above purified enzyme]. The amount of the enzyme used was the same as the amount used in the measurement of β1,3-N-acetylglucosaminyltransferase. As a substrate, 2-aminobenzamide-labeled GlcNAcβ1-3Galβ1-4GlcNAcβ1-3Galβ1-4GlcNAc (hereinafter referred to as “GlcNAc-2LN”) was used. The sugar chain was prepared by treating 2-aminobenzamide-labeled LN3 with β-galactosidase and thereby removing the terminal galactose residue. Specifically, 100 milli-units of β-galactosidase (manufactured by Seikagaku Corporation) were added to about 60 nmol of 2-aminobenzamide-labeled LN3, the reaction was carried out at 37° C. for 16 hours, and the sugar chain was prepared by inactivating β-galactosidase through its heat treatment at 100° C. for 5 minutes.

G6sec2 [3] = biological target: T1, G6sec2; assay: as above; assay type: biochemical; conditions: 2-aminobenzamide-labeled substrate 88 μmol/l; UDP-Gal; 37° C., 16 hours
Protocol: as §1

G6sec2 [4] = biological target: T1, G6sec2; assay: β1,3-N-acetylglucosaminyltransferase activity using glycolipids as substrates (purified enzyme); assay type: biochemical; conditions: for conversion efficiency: purified G6sec2 10 μl, 37° C., 16 hours
Protocol: Using glycolipids as the substrate, β1,3-N-acetylglucosaminyltransferase activity of the G6 polypeptide was measured according to known methods [FEBS, 462, 289 (1999), J. Biol. Chem., 269, 14730-14737 (1994), J. Biol. Chem., 267, 23507 (1992), J. Biol. Chem., 267, 2994 (1992)]. Specifically, the reaction was carried out at 37° C. for 16 hours in 20 μl of a reaction solution [150 mmol/l sodium cacodylate (pH 7.2), 10 mmol/l UDP-GlcNAc (manufactured by SIGMA), 480 μmol/l UDP—[^14C]GlcNAc (manufactured by Amersham), 0.4% Triton CF-54, 10 mmol/l MnCl2, […] glycolipid, purified enzyme (G6sec2)]. As the purified enzyme (G6sec2), 10 μl of the enzyme obtained in the above (2) was used. As glycolipids, lactosylceramide, paragloboside, galactosylceramide (Type I) and galactosylceramide (Type II) were used. Paragloboside was obtained from Yasunori Kushi at Tokyo Medical and Dental University. Other glycolipids were purchased from SIGMA. After completion of the reaction, 200 μl of 0.1 mol/l KCl was added and lightly centrifuged to obtain the supernatant. The supernatant was passed through Sep-Pak plus C18 Cartridge (manufactured by Waters) which had been washed once with 10 ml of methanol and equilibrated by washing twice with 10 ml of 0.1 mol/l KCl to adsorb the glycolipid in the supernatant onto the cartridge. After washing the cartridge twice with 10 ml of pure water for HPLC, the adsorbed glycolipid was eluted with 5 ml of methanol. After concentrating the eluate to about 10 μl using a vacuum dryer, the concentrated solution was plotted on a TLC plate (HPTLC plate Silica gel 60: manufactured by MERCK) and developed using a developing solvent comprising a composition of chloroform:methanol:water (containing 0.2% CaCl2)=65:35:8. After the development was carried out to a position 5 mm from the upper end of the TLC plate, the plate was dried and then the radioactivity incorporated into the glycolipid was measured using Bio Image Analyzer BAS 2000 (manufactured by Fuji Photo Film).

G6 polypeptide = biological target: T3, G6 polypeptide (Homo sapiens, UniProt Q9BYG0); assay: β1,3-N-acetylglucosaminyltransferase activity of cell extract of Namalwa cells transfected with pAMo-G6, glycolipid substrates; assay type: biochemical; conditions: for conversion efficiency into the product: 250 μmol/l glycolipid, 37° C., 16 hours
T3 construct: In order to obtain a DNA encoding the full-length G6 polypeptide, PCR was carried out; expressed in transfected cells; Triton X-100 cell extract
T3 sequence (Q9BYG0 1-378): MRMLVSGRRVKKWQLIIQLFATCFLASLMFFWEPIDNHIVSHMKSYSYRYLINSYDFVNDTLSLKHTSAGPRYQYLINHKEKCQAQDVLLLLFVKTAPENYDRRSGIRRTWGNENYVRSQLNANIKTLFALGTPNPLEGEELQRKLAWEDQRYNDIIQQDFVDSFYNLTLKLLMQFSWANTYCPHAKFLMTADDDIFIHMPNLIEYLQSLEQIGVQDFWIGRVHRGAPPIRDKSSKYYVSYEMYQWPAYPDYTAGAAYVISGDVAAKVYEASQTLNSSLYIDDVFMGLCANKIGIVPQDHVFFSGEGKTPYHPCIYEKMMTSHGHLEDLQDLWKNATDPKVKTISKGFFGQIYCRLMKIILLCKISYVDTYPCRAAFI
Protocol: β1,3-N-Acetylglucosaminyltransferase activity of G6 polypeptide was measured by using glycolipids as substrates according to known methods [FEBS, 462, 289 (1999), J. Biol. Chem., 269, 14730-14737 (1994), J. Biol. Chem., 267, 23507 (1992), J. Biol. Chem., 267, 2994 (1992)]. Specifically, the reaction was carried out at 37° C. for 16 hours in 20 μl of reaction solution [150 mmol/l sodium cacodylate (pH 7.2), 10 mmol/l UDP-GlcNAc (manufactured by SIGMA), 480 μmol/l UDP—[^14C]GlcNAc (manufactured by Amersham), 0.4% Triton CF-54, 10 mmol/l MnCl2, 250 μmol/l glycolipid, the cell extract prepared in the above (1) (20 μg as protein)]. As glycolipids, lactosylceramide (manufactured by SIGMA) and paragloboside (obtained from Yasunori Kushi at Tokyo Medical and Dental University) were used. After completion of the reaction, 200 μl of 0.1 mol/l KCl was added and lightly centrifuged to obtain the supernatant. The supernatant was passed through Sep-Pak plus C18 Cartridge (Waters), which had been washed once with 10 ml of methanol and equilibrated twice with 10 ml of 0.1 mol/l KCl, to adsorb the glycolipid in the supernatant onto the cartridge. After washing the cartridge twice with 10 ml of pure water for HPLC, the adsorbed glycolipid was eluted with 5 ml of methanol. After concentrating the eluate to about 10 μl by using a vacuum dryer, the concentrated solution was spotted on a TLC plate (HPTLC plate Silica gel 60: manufactured by MERCK) and developed using a developing solvent comprising a composition of chloroform:methanol:water (containing 0.2% CaCl2)=65:35:8. After the development was carried out to a position 5 mm from the upper end of the TLC plate, the plate was dried and then the radioactivity incorporated into the glycolipid was measured using Bio Image Analyzer BAS 2000 (manufactured by Fuji Photo Film).

Molecule: CC(=O)N[C@H]1[C@@H](OCc2ccccc2)O[C@H](CO)[C@H](O)[C@@H]1O [benzyl-α-GalNAc]
reactivity to OSK28 antibody in comparison with absence of inhibitor ([1]; 4 mmol/l): sharply reduced

Molecule: O[C@H]1[C@H]2[C@H](O)CCCN2C[C@H]1O [swainsonine]
reactivity to OSK28 antibody ([1]; 10 μg/ml): reduced

Molecule: GlcNAcβ1-3Galβ1-4GlcNAcβ1-3Galβ1-4GlcNAc [GlcNAc-2LN]
GlcNAc β1,3-galactosyltransferase activity (G6sec1): did not show
GlcNAc β1,3-galactosyltransferase activity (G6sec2 [3]): did not show

Molecule: paragloboside
conversion efficiency into the product (G6 polypeptide): 0.126%
activity relative to lactosylceramide as substrate defined as 100% (G6 polypeptide; glycolipid substrates): 96%
conversion efficiency (G6sec2 [4]; glycolipid substrate): 25.2%
activity relative to lactosylceramide as substrate defined as 100% (G6sec2 [4]; glycolipid substrates, purified G6sec2): 468%

Further lines, results first:

conversion efficiency into the product (G6sec2 [2]; unlabeled oligosaccharide 10 mmol/l, 37° C., 16 hours): 0.30%
relative activity, LNnT as substrate defined as 100% (G6sec2 [2]; unlabeled oligosaccharides): 62.5%
Molecule: OC[C@H]1O[C@@H](O[C@H]2[C@H](O)[C@@H](O)C(O)O[C@@H]2CO)[C@H](O)[C@@H](O)[C@H]1O (stereo partly shown) [lactose]

β1,3-N-acetylglucosaminyltransferase activity for the glycolipid (G6sec2 [4]; glycolipid substrate, purified G6sec2): did not show activity
Molecule: galactosylceramide (Type II)

conversion efficiency into the product (G6 polypeptide): 0.125%
conversion efficiency (G6sec2 [4]; glycolipid substrate): 5.39%
Molecule: lactosylceramide

Source: patent publication US7629150B2, “Transformed cell harboring DNA or RNA encoding sugar chain synthesizing agent having β1,3-N-acetylglucosaminyltransferase activity” (Kyowa Hakko Kirin Co., Ltd., priority 2000, dated 2009)
